Test results: US20250368628A1, “METHODS AND COMPOUNDS FOR MODULATING INHERITED GENETIC DISEASES” (Design Therapeutics, Inc., priority 2022, published 2025)

Key:
[1] = system: Myotonic Dystrophy 1 affected patient fibroblasts (Coriel GM04602; 1600 CTG repeats); experiment: DM1 foci reduction assay (EC50 assay; CAG10-Cy3 FISH, foci per nucleus); assay type: cell-based; conditions: Homo sapiens, Fibroblast; DM1 patient fibroblasts, 48 h treatment, foci per nucleus; read-out: DM1 EC50, 48 h
Outline: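 Foci per nucleus counted by 20× imaging of 4 areas per well, after overnight FISH with 5 nM CAG10-Cy3 and DAPI staining of fixed, permeabilized cells. DM1 fibroblasts (GM04602, 1600 CTG) were dosed 48 h at 37 °C, 8 points, 3-fold dilutions, 3 μM top concentration.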

F35T cells = experiment: Foci reduction in FECD (CAG10-Cy3 FISH, foci per nucleus); assay type: cell-based; conditions: F35T cells, 48 h treatment, foci per nucleus; read-out: FECD EC50, 48 h
Outline: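 Foci per nucleus were counted by imaging after overnight CAG10-Cy3 FISH at 37 °C (30% formamide, 2×SSC) with DAPI counterstain, on PFA-fixed, ethanol-permeabilized F35T cells. The cells, seeded at 5000 per well in supplemented Opti-MEM, had received 8-point compound dilutions for 48 h at 37 °C.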

Structure (SMILES) | EC50 [1] | EC50 (F35T cells)
Cn1cc(NC(=O)c2nc(NC(=O)CCNC(=O)c3cc(NC(=O)c4nccn4C)cn3C)cn2C)cc1C(=O)NCCCC(=O)Nc1cn(C)c(C(=O)NCCC(=O)Nc2cc(C(=O)Nc3cn(C)c(C(=O)NCCC#N)n3)n(C)c2)n1 [Compound B-377] | 100 to 500 nM | < 100 nM
CN(CCCNC(=O)OC(C)(C)C)CCCNC(=O)c1nc(NC(=O)c2cc(NC(=O)CCNC(=O)c3nc(NC(=O)CCCNC(=O)c4cc(NC(=O)c5nc(NC(=O)CCNC(=O)c6cc(NC(=O)c7nccn7C)cn6C)cn5C)cn4CCCCCCN=[N+]=[N-])cn3C)cn2C)cn1C [Compound B-363] | < 100 nM | < 100 nM
COCCOCCOCCOCCN(CCOCCOCCOCCOC)C(=O)CCCCn1cc(NC(=O)c2nc(NC(=O)CCNC(=O)c3cc(NC(=O)c4nccn4C)cn3C)cn2C)cc1C(=O)NCCCC(=O)Nc1cn(C)c(C(=O)NCCC(=O)Nc2cc(C(=O)Nc3cn(C)c(C(=O)NCCC(=O)N4CCC(C#CC#CC5CCNCC5)CC4)n3)n(C)c2)n1 [Compound B-260] | 100 to 500 nM | 100 to 500 nM
CCN(CC)CCCC[C@H](NC(=O)C(C)(C)C)C(=O)NCCOCCOCCOCCOCCOCCNC(=O)CCNC(=O)c1nc(NC(=O)c2cc(NC(=O)CCNC(=O)c3nc(NC(=O)CCCNC(=O)c4cc(NC(=O)c5nc(NC(=O)CCNC(=O)c6cc(NC(=O)c7nccn7C)cn6C)cn5C)cn4C)cn3C)cn2C)cn1C [Compound B-90] | 500 to 1000 nM | > 1000 nM
CSCCCC(=O)N1CCC(C#CC#CC2CCN(CCOCCOCCOCCNC(=O)CCNC(=O)c3nc(NC(=O)c4cc(NC(=O)CCNC(=O)c5nc(NC(=O)CCCNC(=O)c6cc(NC(=O)c7nc(NC(=O)CCNC(=O)c8cc(NC(=O)c9nccn9C)cn8C)cn7C)cn6C)cn5C)cn4C)cn3C)CC2)CC1 [Compound B-173] | 100 to 500 nM | 100 to 500 nM
COCCOCCOCCOCCOCCOCCNC(=O)CCNC(=O)c1nc(NC(=O)c2cc(NC(=O)CCNC(=O)c3nc(NC(=O)CCCNC(=O)c4cc(NC(=O)c5nc(NC(=O)CCNC(=O)c6cc(NC(C)c7nccn7C)cn6C)cn5C)cn4C)cn3C)cn2C)cn1C (stereo not drawn) [Compound B-78] | 100 to 500 nM | 100 to 500 nM
CCCNC(=O)CCNC(=O)c1nc(NC(=O)c2cc(NC(=O)CCNC(=O)c3nc(NC(=O)CCCNC(=O)c4cc(NC(=O)c5nc(NC(=O)CCNC(=O)c6cc(NC(=O)c7nccn7C)cn6C)cn5C)cn4C(C)C)cn3C)cn2C)cn1C [Compound B-319] | 100 to 500 nM | < 100 nM
CCOC(=O)c1nc(NC(=O)c2cc(NC(=O)CCNC(=O)c3nc(NC(=O)CCCNC(=O)c4cc(NC(=O)c5nc(NC(=O)CCNC(=O)c6cc(NC(=O)c7nccn7C)cn6C)cn5C)cn4CCCCCCN=[N+]=[N-])cn3C)cn2C)c[nH]1 [Compound B-373] | > 1000 nM | > 1000 nM
Cn1cc(NC(=O)c2nc(NC(=O)CCNC(=O)c3cc(NC(=O)c4nccn4C)cn3C)cn2C)cc1C(=O)NCCCC(=O)Nc1cn(C)c(C(=O)NCCC(=O)Nc2cc(C(=O)Nc3cn(C)c(C(=O)NCCC(=O)N4CCNCC4)n3)n(C)c2)n1 [Compound B-49] | 100 to 500 nM | 100 to 500 nM
Cn1cc(NC(=O)c2nc(NC(=O)CCNC(=O)c3cc(NC(=O)c4nccn4C)cn3C)cn2C)cc1C(=O)NCCCC(=O)Nc1cn(C)c(C(=O)NCCC(=O)Nc2cc(C(=O)Nc3cn(C)c(C(=O)NCCC(=O)N4CC(c5cnc(CNC(=O)c6ccc(C(C)(C)C)cc6)[nH]5)C4)n3)n(C)c2)n1 [Compound B-71] | 100 to 500 nM | 100 to 500 nM
CC(C)CCC(=O)N1CCC(C#CC#CC2CCN(CCOCCOCCOCCNC(=O)CCNC(=O)c3nc(NC(=O)c4cc(NC(=O)CCNC(=O)c5nc(NC(=O)CCCNC(=O)c6cc(NC(=O)c7nc(NC(=O)CCNC(=O)c8cc(NC(=O)c9nccn9C)cn8C)cn7C)cn6C)cn5C)cn4C)cn3C)CC2)CC1 [Compound B-169] | 100 to 500 nM | 100 to 500 nM
CCCNC(=O)CCNC(=O)c1nc(NC(=O)c2cc(NC(=O)CCNC(=O)c3nc(NC(=O)CCCNC(=O)c4cc(NC(=O)c5nc(NC(=O)CCNC(=O)c6cc(NC(=O)c7nccn7C)cn6C)cn5C)cn4CCCCCCN)cn3C)cn2C)cn1C [Compound B-59] | 100 to 500 nM | 100 to 500 nM
